From publication PMC11859928, “Design, Synthesis, and Antiproliferative Activity of Novel Indole/1,2,4-Triazole Hybrids as Tubulin Polymerization Inhibitors” (Pharmaceuticals, 2025)

Assays:
Assay in all cases: NCI one-dose assay
HOP-62 = assay type: cell-based; conditions: Homo sapiens, HOP-62, Non-small cell lung cancer, read-out: Cell growth inhibition %
Protocol: (§1) The National Cancer Institute (NCI), Bethesda, USA, selected the final compounds 6a–j and 7a–j for in vitro anticancer screening. An initial in vitro single-dose anticancer experiment was performed with the entire NCI 60 cell lines derived from nine tumor subpanel cancer cell lines. The results for each compound were illustrated as a mean graph showing the percentage growth of treated cells compared to untreated control cells (see Supplementary Materials).
(§2) The NCI anticancer screening process has been thoroughly detailed. The Drug Evaluation Branch of the National Cancer Institute in Bethesda, […], USA, established the procedure and conducted the anticancer assay on 60 human tumor cell lines from nine neoplastic cancers.

SF-539 = assay type: cell-based; conditions: Homo sapiens, SF-539, CNS cancer, read-out: Cell growth inhibition %
Protocol: as §1, §2

CAKI-1 = assay type: cell-based; conditions: Homo sapiens, CAKI-1, Renal cancer, read-out: Cell growth inhibition %
Protocol: as §1, §2

T-47D = assay type: cell-based; conditions: Homo sapiens, T47D, Breast cancer, read-out: Cell growth inhibition %
Protocol: as §1, §2

OVCAR-3 = assay type: cell-based; conditions: Homo sapiens, OVCAR-3, Ovarian cancer, read-out: Cell growth inhibition %
Protocol: as §1, §2

KM12 = assay type: cell-based; conditions: Homo sapiens, KM12, Colon cancer, read-out: Cell growth inhibition %
Protocol: as §1, §2

NCI-H322M = assay type: cell-based; conditions: Homo sapiens, Non-small cell lung cancer, read-out: Cell growth inhibition %
Protocol: as §1, §2

MOLT-4 = assay type: cell-based; conditions: Homo sapiens, MOLT-4, Leukemia, read-out: Cell growth inhibition %
Protocol: as §1, §2

UACC-62 = assay type: cell-based; conditions: Homo sapiens, UACC-62, Melanoma, read-out: Cell growth inhibition %
Protocol: as §1, §2

HS 578 T = assay type: cell-based; conditions: Homo sapiens, Breast cancer, read-out: Cell growth inhibition %
Protocol: as §1, §2

CCRF-CEM = assay type: cell-based; conditions: Homo sapiens, Leukemia, read-out: Cell growth inhibition %
Protocol: as §1, §2

A549/ATCC = assay type: cell-based; conditions: Homo sapiens, Non-small cell lung cancer, read-out: Cell growth inhibition %
Protocol: as §1, §2

OVCAR-8 = assay type: cell-based; conditions: Homo sapiens, OVCAR-8, Ovarian cancer, read-out: Cell growth inhibition %
Protocol: as §1, §2

HCT-116 = assay type: cell-based; conditions: Homo sapiens, HCT-116, Colon cancer, read-out: Cell growth inhibition %
Protocol: as §1, §2

HL-60(TB) = assay type: cell-based; conditions: Homo sapiens, Leukemia, read-out: Cell growth inhibition %
Protocol: as §1, §2

UACC-257 = assay type: cell-based; conditions: Homo sapiens, UACC-257, Melanoma, read-out: Cell growth inhibition %
Protocol: as §1, §2

MDA-MB-435 = assay type: cell-based; conditions: Homo sapiens, MDA-MB-435, Melanoma, read-out: Cell growth inhibition %
Protocol: as §1, §2

SF-268 = assay type: cell-based; conditions: Homo sapiens, SF-268, CNS cancer, read-out: Cell growth inhibition %
Protocol: as §1, §2

SK-MEL-5 = assay type: cell-based; conditions: Homo sapiens, SK-MEL-5, Melanoma, read-out: Cell growth inhibition %
Protocol: as §1, §2

M14 = assay type: cell-based; conditions: Homo sapiens, M14, Melanoma, read-out: Cell growth inhibition %
Protocol: as §1, §2

U251 = assay type: cell-based; conditions: Homo sapiens, U-251, U251, CNS cancer, read-out: Cell growth inhibition %
Protocol: as §1, §2

COLO 205 = assay type: cell-based; conditions: Homo sapiens, COLO 205, Colon cancer, read-out: Cell growth inhibition %
Protocol: as §1, §2

HT29 = assay type: cell-based; conditions: Homo sapiens, HT-29, HT29, Colon cancer, read-out: Cell growth inhibition %
Protocol: as §1, §2

HCC-2998 = assay type: cell-based; conditions: Homo sapiens, HCC-2998, Colon cancer, read-out: Cell growth inhibition %
Protocol: as §1, §2

SF-295 = assay type: cell-based; conditions: Homo sapiens, SF-295, CNS cancer, read-out: Cell growth inhibition %
Protocol: as §1, §2

SNB-75 = assay type: cell-based; conditions: Homo sapiens, SNB-75, CNS cancer, read-out: Cell growth inhibition %
Protocol: as §1, §2

MDA-MB-231/ATCC = assay type: cell-based; conditions: Homo sapiens, Breast cancer, read-out: Cell growth inhibition %
Protocol: as §1, §2

HCT-15 = assay type: cell-based; conditions: Homo sapiens, HCT-15, Colon cancer, read-out: Cell growth inhibition %
Protocol: as §1, §2

K-562 = assay type: cell-based; conditions: Homo sapiens, K562, K-562, Leukemia, read-out: Cell growth inhibition %
Protocol: as §1, §2

SK-MEL-2 = assay type: cell-based; conditions: Homo sapiens, SK-MEL-2, Melanoma, read-out: Cell growth inhibition %
Protocol: as §1, §2

RPMI-8226 = assay type: cell-based; conditions: Homo sapiens, RPMI-8226, Leukemia, read-out: Cell growth inhibition %
Protocol: as §1, §2

SW-620 = assay type: cell-based; conditions: Homo sapiens, SW-620, Colon cancer, read-out: Cell growth inhibition %
Protocol: as §1, §2

EKVX = assay type: cell-based; conditions: Homo sapiens, Non-small cell lung cancer, read-out: Cell growth inhibition %
Protocol: as §1, §2

786-0 = assay type: cell-based, human; conditions: Homo sapiens, 786-0, 786-0, Renal cancer, read-out: Cell growth inhibition %
Protocol: as §1, §2

HOP-92 = assay type: cell-based, human; conditions: Homo sapiens, HOP-92, HOP-92, Non-small cell lung cancer, read-out: Cell growth inhibition %
Protocol: as §1, §2

UO-31 = assay type: cell-based, human; conditions: Homo sapiens, UO-31, UO-31, Renal cancer, read-out: Cell growth inhibition %
Protocol: as §1, §2

| SMILES | inhibition at 10 µM (HOP-62) [%] | inhibition at 10 µM (SF-539) [%] | inhibition at 10 µM (CAKI-1) [%] | inhibition at 10 µM (T-47D) [%] | inhibition at 10 µM (OVCAR-3) [%] | inhibition at 10 µM (KM12) [%] | inhibition at 10 µM (NCI-H322M) [%] | inhibition at 10 µM (MOLT-4) [%] | inhibition at 10 µM (UACC-62) [%] | inhibition at 10 µM (HS 578 T) [%] | inhibition at 10 µM (CCRF-CEM) [%] | inhibition at 10 µM (A549/ATCC) [%] | inhibition at 10 µM (OVCAR-8) [%] | inhibition at 10 µM (HCT-116) [%] | inhibition at 10 µM (HL-60(TB)) [%] | inhibition at 10 µM (UACC-257) [%] | inhibition at 10 µM (MDA-MB-435) [%] | inhibition at 10 µM (SF-268) [%] | inhibition at 10 µM (SK-MEL-5) [%] | inhibition at 10 µM (M14) [%] | other results |
| --- | --- | --- | --- | --- | --- | --- | --- | --- | --- | --- | --- | --- | --- | --- | --- | --- | --- | --- | --- | --- | --- |
| C=CCn1c(SCC(=O)c2ccc(OC)cc2)nnc1-c1c[nH]c2ccccc12 [Compound 6b, 2-((4-Allyl-5-(1H-indol-3-yl)-4H-1,2,4-triazol-3-yl)thio)-1-(4-methoxyphenyl) Ethenone] | 6.07 | 1.18 | 7.83 | 11.1 | -16.9 | -4.63 | 2.42 | 6.64 | 15.6 | 0.85 | 8.66 | -8.47 | 4.99 | 5.43 | 8.98 | -2.78 | -8.45 | -8.99 | 3.34 | -1.55 | inhibition at 10 µM (U251): 2.31%; inhibition at 10 µM (COLO 205): 2.83%; inhibition at 10 µM (HT29): -12.7%; inhibition at 10 µM (HCC-2998): -3.48%; inhibition at 10 µM (SF-295): 2.91%; inhibition at 10 µM (SNB-75): -14.8%; inhibition at 10 µM (MDA-MB-231/ATCC): 11.1%; inhibition at 10 µM (HCT-15): 2.44%; inhibition at 10 µM (K-562): 8.14%; inhibition at 10 µM (SK-MEL-2): -33.2%; inhibition at 10 µM (RPMI-8226): 16.8%; inhibition at 10 µM (SW-620): 0.51%; inhibition at 10 µM (EKVX): 3.03%; inhibition at 10 µM (786-0): -1.31%; inhibition at 10 µM (HOP-92): 17.3%; inhibition at 10 µM (UO-31): 26.9% |
| O=C(CSc1nnc(-c2c[nH]c3ccccc23)n1-c1ccccc1)c1ccccc1 [Compound 6f, 2-((5-(1H-indol-3-yl)-4-phenyl-4H-1,2,4-triazol-3-yl)thio)-1-phenylethanone] | 76.6 | 92.4 | 46.8 | 16.5 | 39.2 | 30.5 | 18.8 | 9.43 | 26.6 | 75.9 | 8.65 | 14.5 | 85.3 | 62 | 12.8 | -3.2 | 12.8 | 68.3 | 9.3 | 26.4 | inhibition at 10 µM (U251): 89.2%; inhibition at 10 µM (COLO 205): 6.63%; inhibition at 10 µM (HT29): 52.1%; inhibition at 10 µM (HCC-2998): 16.9%; inhibition at 10 µM (SF-295): 28%; inhibition at 10 µM (SNB-75): -0.34%; inhibition at 10 µM (MDA-MB-231/ATCC): 73%; inhibition at 10 µM (HCT-15): 20.6%; inhibition at 10 µM (K-562): 47.2%; inhibition at 10 µM (SK-MEL-2): 8.14%; inhibition at 10 µM (RPMI-8226): 18.7%; inhibition at 10 µM (SW-620): 23.9%; inhibition at 10 µM (EKVX): 31.6%; inhibition at 10 µM (786-0): 70.4%; inhibition at 10 µM (HOP-92): 53%; inhibition at 10 µM (UO-31): 44.5% |
| C=CCn1c(SC/C(=N\O)c2ccc(Br)cc2)nnc1-c1c[nH]c2ccccc12 [Compound 7d, (Z)-2-((4-allyl-5-(1H-indol-3-yl)-4H-1,2,4-triazol-3-yl)thio)-1-(4-bromophenyl) Ethanone Oxime] | 0.14 | 14 | 25.8 | 39.8 | -3.34 | 8.58 | 16.3 | 43.7 | 36.3 | 22.1 | 26.7 | 9.17 | 18.3 | 47 | 35.7 | -1.32 | 11.5 | 4.98 | 40.9 | 19.2 | inhibition at 10 µM (U251): 5.15%; inhibition at 10 µM (COLO 205): 8.25%; inhibition at 10 µM (HT29): 3.35%; inhibition at 10 µM (HCC-2998): -3.65%; inhibition at 10 µM (SF-295): 32.5%; inhibition at 10 µM (SNB-75): 6.02%; inhibition at 10 µM (MDA-MB-231/ATCC): 23.6%; inhibition at 10 µM (HCT-15): 26.9%; inhibition at 10 µM (K-562): 40.8%; inhibition at 10 µM (SK-MEL-2): 8.97%; inhibition at 10 µM (RPMI-8226): 37.9%; inhibition at 10 µM (SW-620): 7.31%; inhibition at 10 µM (EKVX): 25.8%; inhibition at 10 µM (786-0): 13.4%; inhibition at 10 µM (HOP-92): 21%; inhibition at 10 µM (UO-31): 38.3% |
| O/N=C(\CSc1nnc(-c2c[nH]c3ccccc23)n1-c1ccccc1)c1ccc(Cl)cc1 [Compound 7j, (Z)-2-((5-(1H-Indol-3-yl)-4-phenyl-4H-1,2,4-triazol-3-yl)thio)-1-(4-chlorophenyl) Ethanone Oxime] | 164 | 70.5 | 111 | 96.1 | 65.8 | 78.6 | 149 | 107 | 143 | 132 | 105 | 78.5 | 93.6 | 99.3 | 126 | 55.7 | 200 | 149 | 78.8 | 147 | inhibition at 10 µM (U251): 69.5%; inhibition at 10 µM (COLO 205): 89.8%; inhibition at 10 µM (HT29): 95.5%; inhibition at 10 µM (HCC-2998): 83%; inhibition at 10 µM (SF-295): 85.9%; inhibition at 10 µM (SNB-75): 52%; inhibition at 10 µM (MDA-MB-231/ATCC): 155%; inhibition at 10 µM (HCT-15): 148%; inhibition at 10 µM (K-562): 93.1%; inhibition at 10 µM (SK-MEL-2): 79.9%; inhibition at 10 µM (RPMI-8226): 113%; inhibition at 10 µM (SW-620): 137%; inhibition at 10 µM (EKVX): 98%; inhibition at 10 µM (786-0): 65.9%; inhibition at 10 µM (HOP-92): 108%; inhibition at 10 µM (UO-31): 65.6% |
